Consider four compounds from patent US11458138B2 (Novartis AG, priority 2017, dated 2022).

One may read the IC50 as the concentration needed to halve the response being measured. High values mean weaker potency in that assay, low ones greater potency in that assay. The term EC50 denotes the concentration needed to bring the measured effect to its halfway point.

Experiment [1] has as its system Phospho-YAP (Ser127) in JHH-5 cells. As to the kind of experiment: pYAP HTRF Assay (JHH-5 cells). The following applies: 2 hours. It counts as cell-based. An outline of the steps: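 Phospho-YAP read by HTRF (665 nm/620 nm ×10000) in lysates after overnight 18 h antibody incubation at room temperature. Compound treatment lasted 2 h at 37 °C, on JHH-5 cells plated 24 h earlier at 24000 per well in William's E medium with 10% FBS.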
On the technique in general: TR-FRET usually uses a lanthanide donor and a delayed reading to cut background.

For experiment [2], the system named is hepatic progenitor cells (HPC). As to the kind of experiment: Mouse Hepatic Progenitor Cell Proliferation Assay. In kind it is cell-based. Conditions: 96 h, mean number of nuclei per organoid, 4 days. As for the experimental part:
The progenitor cells were isolated from C57Bl/6 wild type mice and expanded as described (Lu, W. Y. et al., Nat. Cell Biol. 17, 971-983 (2015)). Cells are stocked in liquid nitrogen, thawed on need and tested using the following protocol: HPC are harvested from their collagen I coated culture vessel (Corning; cat. Number 354487), counted and assessed for viability using a CEDEX cell counter (Roche). After centrifugation, 12 million cells are re-suspended in 2 ml of William's E Medium (Life Technologies; cat. Number 22551089) supplemented with 10% Fetal Bovine Serum (Amimed; cat. Number 2-01F10-I); 1% Penicillin/Streptomycin (Sigma; cat. Number 15140-122); 17.6 mM of NaHCO3 (Sigma; cat. Number S8761); 20 mM HEPES (Gibco; cat. Number H3375); 10 mM Nicotinamide (Sigma; cat. Number N0636-100); 14 mM glucose (Sigma; cat. Number G7021); 1 mM Sodium Pyruvate (Sigma; cat. Number TMS-005); Insulin Transferrin Selenium (ITS) diluted 100 times from stock solution (Sigma; cat. Number 13148); 100 nM Dexamethasone (Sigma; cat. Number D4902); 0.2 mM ascorbic acid (Sigma; cat. Number A7506-100G); 10 ng/ml recombinant human IL-6 (Preprotech; cat. Number 200-06); 10 ng/ml murine HGF (Preprotech; cat. Number 315-23; Lot. 0711S527); 10 ng/ml murine EGF (Preprotech; cat. Number 315-09; Lot. 0217179-1). Six milliliters of Matrigel (Corning; cat. Number 354277; Lot: 5187006) are added to the cell/media solution, thus the final cell concentration is 1.5 million HPC per milliliter, in 25% culture medium and 75% Matrigel. Five microliter (p1) of the cell/Matrigel suspension are transferred in each well of the clear bottom 96 well assay plate (Corning; cat. Number 356649) using the Star dispenser (Hamilton). […]
Plates are imaged with the CV7000 imager (Yokogawa) at a 10 fold magnification using the bright field lamp (lamp power: 10%; exposure time: 20 ms) and the 405 nanometer laser (laser power: 100%; exposure time 200 ms). Four different images per well were acquired and analyzed with the Yokogawa image analysis software (YAS). […]

The target of experiment [3] is Human LATS1 kinase domain protein (Homo sapiens (Human), UniProt O95835). Kind of experiment: LATS1 Biochemical Caliper Assay (Compound Examples 291-335). Conditions: Caliper EZ Reader. As for the experimental part: The LATS1 biochemical Caliper assay was performed as following.
Human LATS1 kinase domain protein was purchased from Carnabio (catalogue number 01-123; lot 15CBS-0098D). Human LATS1, catalytic domain [589-1130(end) amino acids of accession number NP_004681.1] was co-expressed as N-terminal GST-fusion protein (90 kDa) with human His-tagged MOBKL1A [1-216(end) amino acids of accession number NP_775739.1] using baculovirus expression system. GST-LATS1 was purified by using glutathione sepharose chromatography. The substrate (Fluo-SGKtide; Peptide for LATS1; lot BS-41067) has the following sequence: 5-Fluo-Nva-[…]-amide (SEQ ID NO: 27) x TFA and was purchased from Biosyntan.
The reaction is performed in reaction buffer containing 50 mM Hepes pH 7,5; 0.02% Tween20; 0.02% BSA; 1 mM DTT; 10 uM Na3VO4 and 10 mM beta-Glycerolphosphat and fresh added 1 mM MgCl2 and qsp H2O.
The substrate solution (2× conc.) in Reaction Buffer contains 300 μM ATP and 4 μM Fluo-SGKtide.
The kinase solution (2× conc.) in Reaction Buffer contains 20 nM LATS1 kinase. 4.5 μL of 2× conc. Kinase solution, 50 nL of 1.8 mM compounds and 4.5 μL of substrate solution were added into 384-well plates black small volume from Greiner and incubated at 32° C. for 1 hour. 15 μL of stop buffer containing 100 mM Hepes pH 7,5; 5% DMSO; 0.1% Coating reagent; 10 mM EDTA and 0.02% Brij35 and qsp H2O to each well to terminate the reaction.
Substrates and products were electrophoretically separated using the microfluidic-based Caliper EZ Reader System (Caliper Life Sciences) using a 12 sipper chip (cat 760404). The separation takes place in Coating Buffer (idem Stop buffer) and containing 0.1% Coating reagent CR3 and 0.5% coating reagent CR8 (Perkin Elmer).
Plates were read using a LED with an excitation at 488 nm and a detection at 520 nm to 5 quantify the fluorescence intensity.

Experiment [4] deals with Human LATS2 kinase domain protein (Homo sapiens (Human), UniProt Q9NRM7). Kind of experiment: LATS2 Biochemical Caliper Assay (Compound Examples 1-290). Conditions: 400 micromolar ATP. As for the experimental part: Human LATS2 kinase domain protein was purchased from Carnabio (catalogue number 01-124), which harbors the catalytic domain of amino acids 553-1088, and was co-purified with human His-tagged MOBKL1A (NP_775-739). 5 microlitre of enzyme buffer, 100 nL of compounds and 5 microlitre of localising aid buffer were added into 384-well plates. […] The plates were incubated at 25° C. for 3 hours. 40 microlitre of stop buffer with 25 mM EDTA (NanoSyn) was added to each well to terminate the reaction. Localising aids and products were separated electrophoretically using the microfluidic-based Caliper Labchip 3000 Drug Discovery System (Caliper Life Sciences). Plates were read using blue laser excitation and green fluorescence detection and quantified by fluorescence intensity.

Experiment [5] deals with YAP nuclear translocation in HaCaT cells. As to the kind of experiment: YAP Translocation Assay (HaCaT Cells). In kind it is cell-based, human. The following applies: Homo sapiens, 24 hours. The method in brief:
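HaCaT cells (20,000/well) in DMEM + 10% FBS were plated overnight at 37° C, then exposed to compound for 24 h at 37° C. Cells were fixed with PFA, permeabilized with 0.1% Triton/1.5% BSA and imaged by high-content imaging.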

The test system of experiment [6] is Phospho-YAP (SER127) in HaCaT cells. As to the kind of experiment: pYAP HTRF Assay (HaCaT Cells). In kind it is cell-based, human. Conditions: Homo sapiens, 2 hours. The method in brief: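 Phospho-YAP (Ser127) was measured by HTRF (665 nm/620 nm ratio) in HaCaT cells. Cells were grown 48 hours at 37° C at 5500 cells/well, exposed to compound for 2 hours, and incubated with detection reagents for 20 hrs at room temperature.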

Another experiment deals with LATS1 (Homo sapiens (Human), UniProt O95835). As to the kind of experiment: LATS1 biochemical assay (Table 1A, Compound Examples 1-290; method in the earlier part).
The subject of another experiment is rabbit corneal surface. As to the kind of experiment: Rabbit model of limbal stem cell deficiency, transplantation of expanded LSCs. In kind it is in vivo. The following applies: LSCs expanded in medium comprising the compound, combined with GelMA, delivered via contact lens. The source says:
FIG. 7B: Arrow is pointing to absence of keratin 19 staining. […] FIG. 7C: Arrow is pointing to absence of keratin-12 staining. […] FIG. 7D: Arrow is pointing to areas of positive keratin-19 staining.

A further experiment concerns limbal stem cells (LSCs). Kind of experiment: Differentiation of expanded LSCs into corneal epithelium cells (p63alpha / keratin 12). Conditions: transferred to conditions that enable differentiation. In kind it is cell-based, human. The text has this: Shown are views where the transition from the p63alpha-positive cell identity to the keratin-12 identity are occurring.
These characteristics can be observed by immunohistochemistry or FACS.

Structures are written as SMILES.

Chain of Human LATS2 kinase domain protein (Q9NRM7 553-1088): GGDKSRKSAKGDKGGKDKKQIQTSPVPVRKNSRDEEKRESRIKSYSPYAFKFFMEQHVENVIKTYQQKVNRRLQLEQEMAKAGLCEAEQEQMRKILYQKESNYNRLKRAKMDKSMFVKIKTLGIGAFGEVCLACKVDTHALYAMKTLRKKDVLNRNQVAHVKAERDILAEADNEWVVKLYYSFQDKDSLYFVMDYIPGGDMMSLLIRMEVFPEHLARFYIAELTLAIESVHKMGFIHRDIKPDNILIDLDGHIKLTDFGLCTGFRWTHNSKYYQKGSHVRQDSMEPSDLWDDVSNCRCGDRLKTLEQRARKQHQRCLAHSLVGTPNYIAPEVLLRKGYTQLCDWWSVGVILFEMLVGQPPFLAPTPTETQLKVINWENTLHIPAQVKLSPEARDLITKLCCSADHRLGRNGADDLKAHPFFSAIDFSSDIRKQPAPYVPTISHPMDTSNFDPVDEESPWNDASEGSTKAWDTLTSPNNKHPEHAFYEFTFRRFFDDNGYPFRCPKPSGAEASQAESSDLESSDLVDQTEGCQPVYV
Chain of Human LATS2 kinase domain protein (Q7L9L4 whole entry partner, the tested form may be a part): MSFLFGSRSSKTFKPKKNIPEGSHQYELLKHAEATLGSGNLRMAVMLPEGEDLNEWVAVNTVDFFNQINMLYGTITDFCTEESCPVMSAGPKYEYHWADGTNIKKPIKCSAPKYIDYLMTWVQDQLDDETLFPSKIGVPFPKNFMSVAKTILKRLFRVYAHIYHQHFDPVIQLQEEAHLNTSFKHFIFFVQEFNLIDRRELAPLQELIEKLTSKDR
Chain of LATS1 (O95835 whole entry, looked up): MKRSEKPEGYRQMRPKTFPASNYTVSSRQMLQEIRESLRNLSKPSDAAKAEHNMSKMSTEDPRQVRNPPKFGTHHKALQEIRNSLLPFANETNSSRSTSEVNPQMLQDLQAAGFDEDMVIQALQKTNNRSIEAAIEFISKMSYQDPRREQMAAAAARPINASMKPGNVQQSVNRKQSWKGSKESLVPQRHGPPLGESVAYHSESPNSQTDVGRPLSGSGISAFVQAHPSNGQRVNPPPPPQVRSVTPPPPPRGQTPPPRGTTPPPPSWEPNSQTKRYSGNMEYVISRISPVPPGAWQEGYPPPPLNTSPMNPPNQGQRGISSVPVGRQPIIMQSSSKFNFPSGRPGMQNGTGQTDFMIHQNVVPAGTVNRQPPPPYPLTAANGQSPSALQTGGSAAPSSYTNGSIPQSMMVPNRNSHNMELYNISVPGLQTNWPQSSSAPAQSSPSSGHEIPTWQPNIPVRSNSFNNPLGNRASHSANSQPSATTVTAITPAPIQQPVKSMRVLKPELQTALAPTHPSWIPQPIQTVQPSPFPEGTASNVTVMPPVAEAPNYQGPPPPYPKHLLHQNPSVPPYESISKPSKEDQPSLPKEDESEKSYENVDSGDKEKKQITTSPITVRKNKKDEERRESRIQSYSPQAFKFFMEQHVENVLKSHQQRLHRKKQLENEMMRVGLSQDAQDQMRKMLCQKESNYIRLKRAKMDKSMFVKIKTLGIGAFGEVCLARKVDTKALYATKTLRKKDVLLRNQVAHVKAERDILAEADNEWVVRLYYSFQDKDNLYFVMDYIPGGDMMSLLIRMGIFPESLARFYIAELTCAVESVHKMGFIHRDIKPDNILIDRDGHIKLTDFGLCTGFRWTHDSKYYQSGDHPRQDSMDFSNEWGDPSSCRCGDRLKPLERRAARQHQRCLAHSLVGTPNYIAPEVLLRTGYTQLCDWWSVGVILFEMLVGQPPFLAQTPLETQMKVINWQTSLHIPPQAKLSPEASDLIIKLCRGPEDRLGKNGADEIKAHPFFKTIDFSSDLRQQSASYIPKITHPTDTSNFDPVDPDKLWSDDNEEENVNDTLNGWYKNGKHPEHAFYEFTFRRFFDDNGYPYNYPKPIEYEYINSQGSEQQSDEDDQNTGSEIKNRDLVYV
Chain of LATS1 (Q7L9L4 whole entry partner, looked up): as the sequence (Q7L9L4 whole entry partner, the tested form may be a part) above
Chain of Human LATS1 kinase domain protein (O95835 whole entry, looked up, the tested form may be a part): as the sequence (O95835 whole entry, looked up) above
Chain of Human LATS1 kinase domain protein (Q7L9L4 whole entry partner, looked up, the tested form may be a part): as the sequence (Q7L9L4 whole entry partner, the tested form may be a part) above

For the compound `CC1CNCCN1c1cc(-c2ccncc2)nc2cnccc12` (stereo not drawn) [Example 303, 4-(2-methylpiperazin-1-yl)-2-(pyridin-4-yl)-1,7-naphthyridine], the results for the IC50 in experiment [1] and in experiment [3] were above 10 µM and 0.0102 µM, respectively. In experiment [2], this compound came in with a half-maximal effective concentration (EC50) above 20 µM.
On to `CC(C)(Nc1nc(-c2ccncc2)nc2cnccc12)C(F)(F)F` [Example 58, 2-(pyridin-4-yl)-N-(1,1,1-trifluoro-2-methylpropan-2-yl)pyrido[3,4-d]pyrimidin-4-amine], for which the IC50 in experiment [1] amounted to 0.6 µM; in [4], 0.17 µM; in experiment [6], 0.185 µM; at LATS1, 0.001 µM. Besides, the values for the EC50 in [5] and in experiment [2] were 0.302 µM and 0.84 µM, respectively.
On to `CC(C)(O)COCC(C)(C)Nc1nc(-c2ccncc2)nc2cnccc12` [Example 12, 2-methyl-1-(2-methyl-2-{[2-(pyridin-4-yl)pyrido[3,4-d]pyrimidin-4-yl]amino}propoxy)propan-2-ol], for which the IC50 in experiment [1] is 2.9 µM; in experiment [4], 0.015 µM; in experiment [6] it was 1.15 µM; against LATS1, 0.004 µM. The compound also registered an EC50 in experiment [5] of 1.75 µM. For the same compound, in the experiment on rabbit corneal surface, the “conjunctivalization (keratin-19) in transplanted eye” value is recorded as “prevented conjunctivalization by keratin-19-positive conjunctival cells”. The “corneal epithelium regeneration (keratin-12) in transplanted eye” value in the experiment with rabbit corneal surface is listed as “lead to regeneration of a keratin-12-positive corneal epithelium”. For the same compound, the “differentiation of expanded LSCs into corneal epithelium cells (keratin 12)” value in the experiment on limbal stem cells (LSCs) is listed as “can differentiate into corneal epithelium cells”.
In experiment [2], `C[C@H](N(C)c1nc(-c2ccncc2)nc2cnccc12)C(F)(F)F` [Example 48a, N-methyl-2-(pyridin-4-yl)-N-[(2S)-1,1,1-trifluoropropan-2-yl]pyrido[3,4-d]pyrimidin-4-amine] had a concentration for a half-maximal effect (EC50) of 0.26 µM.
